According to ChEMBL document CHEMBL4483862, “Open-source discovery of chemical leads for next-generation chemoprotective antimalarials” (2018):

Tested on: Plasmodium berghei
Assay: Luciferase/luciferin-expressing antifolate-resistant parasites were used to infect a culture of HepG2 cells that were pre-incubated with compounds. Infected hepatocytes emit light due to the luciferase reaction. Assay results are presented as the percent inhibition of light emission compared to control. […]
Format: functional
Conditions: sporozoite; for IC90: read-out: LUCIFERASE INFECTION ASSAY - IC90
[1] = read-out: LUCIFERASE INFECTION ASSAY - IC50

Row | Structure (SMILES) | IC90 | IC50 [1] | also measured
1 | N#CC1(c2ccccc2)C/C(=C\c2cccnc2)C(=O)/C(=C/c2cccnc2)C1 (stereo unspecified) | 4.83 µM | – | IC50 (HEPG2TOX_HILL_SLOPE 15.6, HEPG2TOX_R_SQUARED 0.458, PBLUC_HILL_SLOPE 155, PBLUC_R_SQUARED 0.194, read-out: LUCIFERASE INFECTION ASSAY - IC50): 4.76 µM
2 | Cc1nn(C)c(Cl)c1/C=N/Nc1ccc([N+](=O)[O-])cc1S(=O)(=O)Nc1ccc(Cl)cc1 | > 10 µM | – | IC50 (HEPG2TOX_HILL_SLOPE 1.82, HEPG2TOX_R_SQUARED 0.852, PBLUC_HILL_SLOPE 13.6, PBLUC_R_SQUARED 0.455, read-out: LUCIFERASE INFECTION ASSAY - IC50): 9.47 µM
3 | Cc1nc2ccc(N/N=C(/C(=O)Nc3c(Cl)cccc3Cl)C(=O)c3ccccc3)cc2s1 | 8.28 µM | 5.17 µM | –
4 | CSc1cc(-c2sc3scc(C)c3c2C)n[nH]1 | > 11.8 µM | > 11.8 µM | –
5 | Cc1ccc2c(COC(=O)[C@@H]3CCCN3C(=O)c3cccs3)cc(=O)oc2c1 | > 10 µM | > 10 µM | –
6 | Cc1cc(C)cc(C(=O)/C=c2\[nH]c(=O)/c(=C\c3cccs3)s2)c1 | > 10 µM | > 10 µM | –
7 | O=C(Nc1ccccc1)c1ccc(CN2CCC(O)CC2)cc1 | > 10 µM | – | IC50 (FFLUC_HILL_SLOPE 0.964, FFLUC_R_SQUARED 0.857, PBLUC_HILL_SLOPE 0.791, PBLUC_R_SQUARED 0.696, read-out: LUCIFERASE INFECTION ASSAY - IC50): 1.04 µM
8 | C=CCNC(=O)NCC(=O)Nc1ccc(OC)c(Cl)c1 | > 10 µM | > 10 µM | –
9 | COc1cc(C)c(C(c2ccc(N(C)C)cc2)c2ccc(N(C)C)cc2)cc1C | 6.45 µM | – | IC50 (HEPG2TOX_HILL_SLOPE 7.41, HEPG2TOX_R_SQUARED 0.305, PBLUC_HILL_SLOPE 5.23, PBLUC_R_SQUARED 0.705, read-out: LUCIFERASE INFECTION ASSAY - IC50): 4.24 µM
10 | COC(=O)C1CC2CCCCC2N1C(=O)c1nn(C)c(=O)c2ccccc12 (stereo unspecified) | > 10 µM | > 10 µM | –
11 | O=C1NC(c2ccc(N3CCCCC3)cc2)Nc2ccccc21 (stereo unspecified) | 0.743 µM | 0.0973 µM | –
12 | Cc1ccc2nc(NC(=O)c3ccc(C(F)(F)F)cc3)c(C(=O)NC3CCCC3)n2c1 | 1.95 µM | 0.593 µM | –
13 | COc1ccc(C2=Cc3nc4ccccc4n3C3(C(F)(F)F)OC(c4ccccc4)=NN23)cc1 (stereo unspecified) | > 10 µM | – | IC50 (FFLUC_HILL_SLOPE 13.2, FFLUC_R_SQUARED 0.193, HEPG2TOX_HILL_SLOPE 11.1, HEPG2TOX_R_SQUARED 0.974, PBLUC_HILL_SLOPE 14.1, PBLUC_R_SQUARED 0.236, read-out: LUCIFERASE INFECTION ASSAY - IC50): 9.44 µM
14 | CCNC(=S)NNC(=O)/C=C/c1ccccc1OC | > 10 µM | – | IC50 (FFLUC_HILL_SLOPE 0.401, FFLUC_R_SQUARED 0.162, HEPG2TOX_HILL_SLOPE 12.3, HEPG2TOX_R_SQUARED 0.97, read-out: LUCIFERASE INFECTION ASSAY - IC50): > 10 µM
15 | Cc1ccc(/C=N/n2c(-c3cc(C)c(C)cc3C)cs/c2=N\CC2CCCO2)o1 (stereo unspecified) | 3.52 µM | – | IC50 (FFLUC_HILL_SLOPE 16.3, FFLUC_R_SQUARED 0.0442, HEPG2TOX_HILL_SLOPE 1.44, HEPG2TOX_R_SQUARED 0.874, PBLUC_HILL_SLOPE 40.1, PBLUC_R_SQUARED 0.415, read-out: LUCIFERASE INFECTION ASSAY - IC50): 3.33 µM
16 | CCCN(CC(=O)Nc1ccc(Cl)cc1Cl)C(=O)c1cn2ccccc2n1 | > 10 µM | – | IC50 (HEPG2TOX_HILL_SLOPE 2.93, HEPG2TOX_R_SQUARED 0.207, PBLUC_HILL_SLOPE 1.46, PBLUC_R_SQUARED 0.174, read-out: LUCIFERASE INFECTION ASSAY - IC50): > 10 µM
17 | CCOc1ccc(Oc2ccc(S(=O)(=O)N(C)C3CCN(CC)CC3)cc2)cc1 | > 10 µM | > 10 µM | –
18 | OC1CCN(c2ccnc3c(-c4ccc5ccccc5c4)cnn23)CC1 | 0.96 µM | – | IC50 (PBLUC_HILL_SLOPE 1.1, PBLUC_R_SQUARED 0.73, read-out: LUCIFERASE INFECTION ASSAY - IC50): 0.129 µM
19 | COc1cc(/C=N/n2cnc3scc(-c4ccc(C)cc4)c3c2=O)ccc1OC(=O)OC(C)(C)C | > 10 µM | – | IC50 (HEPG2TOX_HILL_SLOPE 2.15, HEPG2TOX_R_SQUARED 0.967, PBLUC_HILL_SLOPE 2.51, PBLUC_R_SQUARED 0.415, read-out: LUCIFERASE INFECTION ASSAY - IC50): 4.26 µM
20 | CNC(=O)c1ccc(CN(Cc2ccco2)C(=O)Cc2ccc(-c3ccccc3)cc2)cc1 | > 10 µM | – | IC50 (FFLUC_HILL_SLOPE 7.09, FFLUC_R_SQUARED 0.0104, PBLUC_HILL_SLOPE 1.93, PBLUC_R_SQUARED 0.808, read-out: LUCIFERASE INFECTION ASSAY - IC50): 3.68 µM
21 | CC(C)c1ccc(N2C(=O)/C(=C\c3ccccc3OCc3ccccn3)NC2=S)cc1 | 3.92 µM | – | IC50 (HEPG2TOX_HILL_SLOPE 3.89, HEPG2TOX_R_SQUARED 0.964, PBLUC_HILL_SLOPE 2.57, PBLUC_R_SQUARED 0.661, read-out: LUCIFERASE INFECTION ASSAY - IC50): 1.67 µM
22 | CNS(=O)(=O)Cc1ccccc1CNCc1ccc(OC(F)F)cc1 | > 10 µM | > 10 µM | –

Row | Structure (SMILES) | IC90 | IC50 [1] | also measured
23 | CCCCCCOc1ccc(-c2cnc(SC)nc2)cc1 | 0.535 µM | 0.205 µM | –
24 | Cc1ccsc1C(O)c1nnc(N2CCCCC2)s1 (stereo unspecified) | 6.49 µM | – | IC50 (PBLUC_HILL_SLOPE 1.05, PBLUC_R_SQUARED 0.691, read-out: LUCIFERASE INFECTION ASSAY - IC50): 0.794 µM
25 | O=C(Cc1cccs1)Nc1ccc(Cl)c(C(F)(F)F)c1 | > 10 µM | > 10 µM | –
26 | Cc1ccccc1-n1c(SCC(=O)Nc2sc3c(c2C(N)=O)CCC3)nc2ccccc2c1=O | > 10 µM | – | IC50 (HEPG2TOX_HILL_SLOPE 1.4, HEPG2TOX_R_SQUARED 0.675, read-out: LUCIFERASE INFECTION ASSAY - IC50): > 10 µM
27 | N#Cc1cccc(CN2CCN3C(C(=O)Nc4ccc(Oc5ccccc5)cc4)=COC3=NC2=O)c1 | > 10 µM | – | IC50 (HEPG2TOX_HILL_SLOPE 5.43, HEPG2TOX_R_SQUARED 0.0351, read-out: LUCIFERASE INFECTION ASSAY - IC50): > 10 µM
28 | CCN(CC(=O)Nc1nnc(-c2ccccc2)o1)Cc1ccc(Br)s1 | 3.99 µM | – | IC50 (PBLUC_HILL_SLOPE 15.5, PBLUC_R_SQUARED 0.469, read-out: LUCIFERASE INFECTION ASSAY - IC50): 3.46 µM
29 | CCOc1ccc(CN2CCN(C(=O)Cc3c(C)nn(C)c3C)CC2)cc1 | > 10 µM | – | IC50 (PBLUC_HILL_SLOPE 2.6, PBLUC_R_SQUARED 0.21, read-out: LUCIFERASE INFECTION ASSAY - IC50): > 10 µM
30 | COc1cc(-c2cn3c(-c4cccc(C(C)=O)c4)cnc3cn2)ccc1O | > 9.18 µM | – | IC50 (HEPG2TOX_HILL_SLOPE 8.28, HEPG2TOX_R_SQUARED 0.589, PBLUC_HILL_SLOPE 10.1, PBLUC_R_SQUARED 0.274, read-out: LUCIFERASE INFECTION ASSAY - IC50): 7.75 µM
31 | Cc1nc(-c2ccc(CNC(=O)COc3ccccc3-c3ccccc3)o2)cs1 | > 10 µM | > 10 µM | –
32 | Cc1cc(Cl)ccc1OCCCC(=O)NCCn1c(C)nc2ccccc21 | > 10 µM | – | IC50 (PBLUC_HILL_SLOPE 11.5, PBLUC_R_SQUARED 0.538, read-out: LUCIFERASE INFECTION ASSAY - IC50): 9.27 µM
33 | CN(C)c1cccc(-c2cnc3sc(NCc4ccncc4)nn23)c1 | > 9.42 µM | > 9.42 µM | –
34 | Cc1cc(=O)[nH]c(SCC(=O)c2cc(C)n(-c3ccccc3)c2C)c1C#N | > 10 µM | > 10 µM | –
35 | CC(C)(C)OC(=O)N1CCc2nc(NC(=O)c3ccc(Cl)cc3F)sc2C1 | 8.96 µM | – | IC50 (HEPG2TOX_HILL_SLOPE 2.37, HEPG2TOX_R_SQUARED 0.812, PBLUC_HILL_SLOPE 3.49, PBLUC_R_SQUARED 0.436, read-out: LUCIFERASE INFECTION ASSAY - IC50): 4.77 µM
36 | NC(=O)c1ccsc1NC(=O)CN1CCC(c2c[nH]c3ccccc23)CC1 | > 10 µM | – | IC50 (FFLUC_HILL_SLOPE 7.73, FFLUC_R_SQUARED 0.279, read-out: LUCIFERASE INFECTION ASSAY - IC50): > 10 µM
37 | COc1ccccc1-c1nnc(SC(C(=O)Nc2cc(Cl)cc(Cl)c2)c2ccccc2)o1 (stereo unspecified) | 7.61 µM | – | IC50 (HEPG2TOX_HILL_SLOPE 8.26, HEPG2TOX_R_SQUARED 0.825, PBLUC_HILL_SLOPE 4.24, PBLUC_R_SQUARED 0.374, read-out: LUCIFERASE INFECTION ASSAY - IC50): 4.54 µM
38 | Cc1nnc(SC2CCCCC2=O)n1C1CCCCC1 (stereo unspecified) | > 10 µM | > 10 µM | –
39 | CNC(=O)C(Sc1nnc(Nc2ccc(C(C)C)cc2)s1)C(C)=O (stereo unspecified) | > 10 µM | > 10 µM | –
40 | COc1ccc(NC(=O)c2ccc(CN(C)C3CCCCCC3)cc2)cc1 | > 2 µM | – | IC50 (PBLUC_HILL_SLOPE 0.775, PBLUC_R_SQUARED 0.25, read-out: LUCIFERASE INFECTION ASSAY - IC50): 1.73 µM
41 | Nc1cccc(-c2ccnc3n[nH]c(-c4cccc(Cl)c4)c23)c1 | 7.12 µM | – | IC50 (HEPG2TOX_HILL_SLOPE 22.1, HEPG2TOX_R_SQUARED 0.878, PBLUC_HILL_SLOPE 1.59, PBLUC_R_SQUARED 0.529, read-out: LUCIFERASE INFECTION ASSAY - IC50): 1.79 µM
42 | CC(C)c1ccc(NC(=O)c2csc(Cc3c(Cl)cccc3Cl)n2)cc1 | 8.08 µM | – | IC50 (HEPG2TOX_HILL_SLOPE 1.62, HEPG2TOX_R_SQUARED 0.849, PBLUC_HILL_SLOPE 1.9, PBLUC_R_SQUARED 0.639, read-out: LUCIFERASE INFECTION ASSAY - IC50): 2.55 µM
43 | COc1ccc(Cc2nn3c(C(=S)NCCCN4CCOCC4)c(-c4ccc(Cl)cc4)c4c3n2CCCC4)cc1 | > 10 µM | – | IC50 (PBLUC_HILL_SLOPE 10, PBLUC_R_SQUARED 0.392, read-out: LUCIFERASE INFECTION ASSAY - IC50): 8.06 µM
